According to the supplement of paper PMC7645387:

Key:
Settings in all cases: treatment time: 6 days
[1] = test system: PeTa; test: cell viability relative to DMSO control; higher = less growth inhibition
Procedure: (§1)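 MCC cell lines (PeTa, MKL-1, MS-1, WaGa) and HDFB fibroblasts were treated for 6 days with serial dilutions (1e-11 to 1e-4 M) of single compounds in quadruplicate. Viability was read by CellTiter-Glo 2.0 and expressed as % of DMSO control.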

[2] = test system: MKL-1; test: as above
Procedure: as §1

[3] = test system: HDFB; test: as above
Procedure: as §1

[4] = test system: PeTa; test: growth inhibition relative to DMSO control (fraction); higher = stronger growth inhibition
Procedure: (§2)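 Drug combination matrices: GSK-LSD1 (0, 1, 10, 100 nM) was combined with a second epigenetic drug (0 to 10 uM) on MCC lines PeTa and MKL-1 and on HDFB fibroblasts for 6 days, in quadruplicate. Viability was read by CellTiter-Glo 2.0. The response is the fraction of growth inhibition relative to DMSO, as input to synergyfinder Bliss analysis.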

[5] = test system: MKL-1; test: as above
Procedure: as §2

[6] = test system: HDFB; test: as above
Procedure: as §2

Cc1sc2c(c1C)C(c1ccc(Cl)cc1)=N[C@@H](CC(=O)OC(C)(C)C)c1nnc(C)n1-2 [(+)-JQ1]
cell viability [%]
Settings	log10 concentration (M): -4	log10 concentration (M): -5	log10 concentration (M): -6	log10 concentration (M): -7	log10 concentration (M): -8	log10 concentration (M): -9	log10 concentration (M): -10	log10 concentration (M): -11
[1]	0.0148	3.47	7.04	21.7	94.3	96.7	87.4	100
[2]	0.00849	0.0389	0.0944	20.7	66.8	89.2	94.1	93.9
[3]	0.0326	31.7	52	78.7	94.8	106	110	99

Cc1cc2c(cc1N1C(=O)c3cccc4c(CCCO)ccc(c34)C1=O)n(C)c(=O)n2C [BAY299]
cell viability [%]
Settings	log10 concentration (M): -4	log10 concentration (M): -5	log10 concentration (M): -6	log10 concentration (M): -7	log10 concentration (M): -8	log10 concentration (M): -9	log10 concentration (M): -10	log10 concentration (M): -11
[1]	0.141	2.01	37.3	88.5	92.1	94.4	103	95.8
[2]	0.0297	0.557	20.6	102	88.4	111	101	92.3
[3]	31.2	78.5	74.1	92.1	100	97.5	100	99.3

Nc1ccccc1NC(=O)c1ccc(CNC(=O)OCc2cccnc2)cc1 [Entinostat]
cell viability [%]
Settings	log10 concentration (M): -4	log10 concentration (M): -5	log10 concentration (M): -6	log10 concentration (M): -7	log10 concentration (M): -8	log10 concentration (M): -9	log10 concentration (M): -10	log10 concentration (M): -11
[1]	0.0531	0.0605	0.0805	50.9	94.9	98.1	102	108
[2]	0.0104	0.0238	0.0511	75	102	102.6	101	102
[3]	0.192	11	33.8	94.1	102	102	104	104

c1ccc([C@@H]2C[C@H]2NC2CCNCC2)cc1 [GSK-LSD1] + CCOC(=O)NCCCC(=O)NCCc1ccccc1 [Santacruzamate A]
growth inhibition
Settings	partner concentration 0 nM	partner concentration 1 nM	partner concentration 10 nM	partner concentration 100 nM	partner concentration 1000 nM	partner concentration 10000 nM
[4], GSK-LSD1 concentration 0 nM	–	-0.00232	0.00932	0.0171	-0.000556	-0.0248
[4], GSK-LSD1 concentration 1 nM	0.0188	0.0434	0.0394	0.0494	0.0221	-0.00432
[4], GSK-LSD1 concentration 10 nM	0.412	0.412	0.418	0.432	0.466	0.403
[4], GSK-LSD1 concentration 100 nM	0.786	0.751	0.762	0.748	0.793	0.814
[5], GSK-LSD1 concentration 0 nM	–	0.00478	-0.00416	-0.0025	-0.0148	-0.0477
[5], GSK-LSD1 concentration 1 nM	0.0491	0.0627	0.0768	0.068	0.072	0.014
[5], GSK-LSD1 concentration 10 nM	0.266	0.253	0.298	0.281	0.242	0.184
[5], GSK-LSD1 concentration 100 nM	0.748	0.763	0.741	0.763	0.696	0.755
[6], GSK-LSD1 concentration 0 nM	–	0.0152	0.0273	-0.00476	0.025	-0.0257
[6], GSK-LSD1 concentration 1 nM	0.0274	0.0683	0.0641	0.0608	0.0549	0.0385
[6], GSK-LSD1 concentration 10 nM	0.103	0.132	0.111	0.109	0.0931	0.0944
[6], GSK-LSD1 concentration 100 nM	0.209	0.215	0.245	0.258	0.258	0.248

c1ccc([C@@H]2C[C@H]2NC2CCNCC2)cc1 [GSK-LSD1] + CN1CCN(c2ccc(-c3cccc(CN4CCOCC4)c3)cc2NC(=O)c2c[nH]c(=O)cc2C(F)(F)F)CC1 [OICR9429]
growth inhibition
Settings	partner concentration 0 nM	partner concentration 1 nM	partner concentration 10 nM	partner concentration 100 nM	partner concentration 1000 nM	partner concentration 10000 nM
[4], GSK-LSD1 concentration 0 nM	–	-0.0155	-0.0439	-0.00944	0.0255	0.143
[4], GSK-LSD1 concentration 1 nM	-0.0127	-0.0233	-0.0546	-0.0748	0.0274	0.0895
[4], GSK-LSD1 concentration 10 nM	0.451	0.456	0.365	0.381	0.437	0.509
[4], GSK-LSD1 concentration 100 nM	0.808	0.808	0.787	0.806	0.827	0.863
[5], GSK-LSD1 concentration 0 nM	–	-0.0407	-0.0602	-0.0599	-0.0444	-0.00949
[5], GSK-LSD1 concentration 1 nM	0.0584	0.0967	0.0719	0.0573	0.0606	0.0783
[5], GSK-LSD1 concentration 10 nM	0.357	0.381	0.381	0.355	0.398	0.438
[5], GSK-LSD1 concentration 100 nM	0.717	0.695	0.709	0.735	0.775	0.797
[6], GSK-LSD1 concentration 0 nM	–	-0.0114	0.00661	-0.0286	0.11	0.593
[6], GSK-LSD1 concentration 1 nM	0.0144	0.0294	0.0019	0.0389	0.171	0.68
[6], GSK-LSD1 concentration 10 nM	0.091	0.0858	0.0542	0.0911	0.22	0.651
[6], GSK-LSD1 concentration 100 nM	0.149	0.113	0.145	0.139	0.282	0.676
